What was measured:
Plutella xylostella = experiment: Insecticidal test against Plutella xylostella; conditions: in Brassica rapa, 144 h, read-out: corrected mortality (%), assessment
Source text: Six days after the immersion in the drug solution, the number of surviving insects was examined.

Dirofilaria immitis = experiment: Effect test on Dirofilaria immitis (larval motility inhibition); conditions: 168 h, read-out: motility inhibition rate
Laodelphax striatellus = experiment: Insecticidal test against Laodelphax striatellus; conditions: in Oryza sativa, 192 h, read-out: corrected mortality (%), assessment
[1] = system: Frankliniella occidentalis; experiment: Insecticidal test against Frankliniella occidentalis; conditions: in Phaseolus vulgaris, 96 h, read-out: corrected mortality (%), assessment
Source text: Female adults of Frankliniella occidentalis were inoculated onto Phaseolus vulgaris leaf pieces, and after allowing them to lay eggs for one day, the female adults were removed. […] Four days after the treatment, the number of surviving larvae of this species larvae was examined.

SMILES | mortality at 500 µg/mL (Plutella xylostella) | inhibition at 100 µM (Dirofilaria immitis) | mortality at 500 ppm (Laodelphax striatellus) | mortality at 500 µg/mL [1]
O=C1CC(c2ccc(C(F)(F)F)cc2)CC(=O)C1=C(Nc1ccc(F)cn1)Nc1ccc(F)cn1 (centres unmarked) [1-1] | 100% | ≥ 50% | – | –
CNC(Nc1ccc(F)cc1)=C1C(=O)CC(c2ccc(Br)cn2)CC1=O (centres unmarked) [1-10] | 100% | ≥ 50% | – | –
O=C1CC(c2ccc(C(F)(F)F)cc2)CC(=O)C1=C(NCC(F)(F)F)Nc1ccc(F)cc1 (centres unmarked) [1-23] | 100% | ≥ 50% | – | –
O=C1CC(c2ccc(C(F)(F)F)cc2)CC(=O)C1=C(NCC(F)(F)F)NCC(F)(F)F (centres unmarked) [1-28] | 100% | ≥ 50% | – | –
CC(C)(C)ONC(Nc1ccc(F)cc1)=C1C(=O)CC(c2ccc(C(F)(F)F)cc2)CC1=O (centres unmarked) [1-38] | 100% | ≥ 50% | – | –
CC1(C)C(=O)C(=C(Nc2ccc(F)cc2)Nc2ccc(F)cc2)C(=O)CC1c1ccc(Br)cn1 (centres unmarked) [1-44] | 100% | ≥ 50% | – | –
CC1(C)C(=O)C(=C(Nc2ccc(F)cn2)Nc2ccc(F)cn2)C(=O)CC1c1ccc(Br)cn1 (centres unmarked) [1-45] | 100% | ≥ 50% | – | –
C=CCNC(Nc1ccc(F)cc1)=C1C(=O)CC(c2cnc(C)o2)CC1=O (centres unmarked) [1-115] | 100% | ≥ 50% | – | –
O=C1CC(c2ccc(C(F)(F)F)cc2)CC(=O)C1=C(Nc1ccc(F)nc1)Nc1cccnn1 (centres unmarked) [1-116] | 100% | ≥ 50% | – | –
CNC(Nc1ccc(F)nc1)=C1C(=O)CC(c2ccc(C(F)(F)F)cc2)NC1=O (centres unmarked) [3-11] | 100% | ≥ 50% | 100% | –
Cn1nc(C2CC(=O)C(=C(Nc3ccc(F)cc3)Nc3ccc(F)nc3)C(=O)N2)cc1OC(F)F (centres unmarked) [3-22] | 100% | ≥ 50% | 100% | –
CNC(Nc1ccc(F)nc1)=C1C(=O)CC(c2nc(-c3ccc(F)cc3)cs2)NC1=O (centres unmarked) [3-23] | 100% | ≥ 50% | 100% | –
O=C1CC(c2nc(-c3ccc(F)cc3)cs2)NC(=O)C1=C(Nc1ccc(F)cc1)Nc1ccc(F)nc1 (centres unmarked) [3-24] | 100% | ≥ 50% | – | –
O=C1CC(c2nc(-c3ccc(F)cc3)cs2)NC(=O)C1=C(Nc1ccc(F)nc1)Nc1ccc(F)nc1 (centres unmarked) [3-25] | 100% | ≥ 50% | – | –
CC(C)(C)OC(=O)C1CC(=O)C(=C(Nc2ccc(F)cc2)Nc2ccc(F)nc2)C(=O)N1 (centres unmarked) [3-39] | 100% | ≥ 50% | – | –
NC(Nc1ccc(F)cc1)=C1C(=O)CC(c2cnc(Cl)c(Br)c2)NC1=O (centres unmarked) [3-42] | 100% | ≥ 50% | 100% | –
CCCNC(Nc1ccc(F)cc1)=C1C(=O)CN(c2ccc(C#N)cn2)CC1=O [4-3] | 100% | ≥ 50% | – | –
COC(=O)N1C(=O)C(=C(Nc2ccc(F)cc2)Nc2ccc(F)cc2)C(=O)CN1c1ccc(C#N)nc1 [6-4] | – | ≥ 50% | 100% | 100%

SMILES | mortality at 500 µg/mL (Plutella xylostella) | inhibition at 100 µM (Dirofilaria immitis) | mortality at 500 ppm (Laodelphax striatellus) | mortality at 500 µg/mL [1]
COCCOC(=O)N1C(=O)C(=C(Nc2cccc(F)c2)Nc2cccc(F)c2)C(=O)CN1c1ccc(C#N)nc1 [6-6] | 100% | ≥ 50% | 100% | 100%
COCCOC(=O)N1C(=O)C(=C(Nc2ccc(OC)cc2)Nc2ccc(OC)cc2)C(=O)CN1c1ccc(C#N)nc1 [6-7] | – | ≥ 50% | 100% | –
CNC(Nc1ccc(F)cc1)=C1C(=O)CN(c2cnc(C#N)c(Br)c2)N(C(=O)OC)C1=O [6-20] | – | ≥ 50% | 100% | 100%
CNC(Nc1ccc(F)c(F)c1)=C1C(=O)CN(c2ccc(Br)nc2)N(C(=O)OC)C1=O [6-22] | – | ≥ 50% | 100% | –
CCOC(=O)N1C(=O)C(=C(NC)Nc2cccc(F)c2)C(=O)CN1c1ccc(C#N)c(Cl)c1 [6-30] | – | ≥ 50% | – | 100%
CNC(Nc1ccc(F)cc1)=C1C(=O)CN(c2ccc(C#N)nc2)N(Cc2cnc(Cl)s2)C1=O [6-38] | – | ≥ 50% | – | 100%
CNC(Nc1ccc(F)cc1)=C1C(=O)CN(c2cnc(C#N)c(Br)c2)N(C)C1=O [6-47] | – | ≥ 50% | 100% | 100%
CC(C)(C)c1ccc(CSC(Nc2ccc(F)nc2)=C2C(=O)CC(c3cnc(Cl)c(Br)c3)NC2=O)cc1 (centres unmarked) [9-32] | 100% | ≥ 50% | 100% | –
CSC(Nc1ccc(F)nc1)=C1C(=O)CC(c2cc(OC(F)F)n(C)n2)NC1=O (centres unmarked) [9-35] | 100% | ≥ 50% | 100% | 100%
CSC(Nc1ccc(F)nc1)=C1C(=O)CC(c2nc(-c3ccc(F)cc3)cs2)NC1=O (centres unmarked) [9-36] | 100% | ≥ 50% | 100% | 100%
CNC(Nc1ccc(F)cc1)=C1C(=O)CC(c2ccc(C(F)(F)F)cc2)N(C)C1=O (centres unmarked) [compound No. 3-1, 3-(((4-fluorophenyl)amino) (methylamino)methylene)-1-methyl-6-(4-(trifluoromethyl)phenyl)piperidine-2,4-dione] | – | ≥ 50% | – | –
CCC1(c2ccc(C(F)(F)F)nc2)CN(C)C(=O)C(=C(NC)Nc2ccc(F)cc2)C1=O (centres unmarked) [compound No. 3-2] | – | ≥ 50% | – | –
CNC(Nc1ccc(F)cc1)=C1C(=O)CN(c2ccc(C#N)cn2)CC1=O [compound No. 4-1] | 100% | ≥ 50% | – | –
CC(C)(C)OC(=O)N1CC(=O)C(=C(Nc2ccc(F)cn2)Nc2ccc(F)cn2)C(=O)C1 [compound No. 4-10, tertiary butyl 4-(bis((5-fluoropyridin-2-yl)amino)methylene)-3,5-dioxopiperidine-1-carboxylate] | – | – | 100% | –
NC(Nc1ccc(F)cc1)=C1C(=O)CCCN(c2ccc(C(F)(F)F)cc2)C1=O [compound No. 5-1, 3-(amino((4-fluorophenyl)amino)methylene)-1-(4-(trifluoromethyl)phenyl)azepane-2,4-dione] | – | – | 100% | –
COC(=O)N1C(=O)C(=C(NCC(F)F)Nc2ccc(F)cc2)C(=O)CN1c1ccc(C#N)nc1 [compound No. 6-15, methyl 2-(6-cyanopyridin-3-yl)-5-(((2,2-difluoroethyl)amino) ((4-fluorophenyl)amino)methylene)-4,6-dioxotetrahydropyridazine-1(2H)-carboxylate] | – | ≥ 50% | 100% | –
CSC(Nc1ccc(F)nc1)=C1C(=O)CC(c2ccc(C(F)(F)F)cc2)CC1=O (centres unmarked) [compound No. 9-1] | 100% | ≥ 50% | – | –

— patent publication EP4737442A1, “DIAMINOVINYLIDENE DERIVATIVE OR SALT THEREOF, PEST CONTROL AGENT CONTAINING SAID COMPOUND, AND METHODS FOR USING THESE” (ADEKA CORPORATION, priority 2023, dated 2025)
